Experiments:
[1] = system: keratinocyte-melanocyte co-cultures (Human HaCaT keratinocytes, Human primary melanocytes); test: Induced pigmentation in keratinocyte-melanocyte co-cultures (DOPA staining, computerized image analysis); assay type: cell-based; settings: three daily treatments; for Mean area: DOPA-stained relative pigmented area; for % increase: normalized to control
Description: The peptides Peptide 1 and Peptide 3 and various pigments were tested, alone or in combination, with keratinocyte-melanocyte cultures for their effect on cell pigmentation, using DOPA staining and computerized image analysis. The pigments that were tested were the pigmented natural extracts Bearberry extract from Alban Muller International (Vincennes, France) and Hedychium spicatum extract sold as Kapur Kachali from Amsar Private Limited (Indore, India), copper chloride from Sigma (St. Louis, Mo.) and the water-soluble melanin derivatives Melasyn-100™ from San-mar laboratories, Inc. (Elmsford, N.Y.) and MelanZe™ from Zylepsis (Ashford, Kent, United Kingdom). The pigments were tested at concentrations ranging from 0.0001%(W/V) to 1%(W/V) and the peptides were tested at 50 μM.
The assay was conducted in the following manner. Human HaCaT keratinocytes (Boukamp P., et al., J Cell Biol 106, 3, 761-771 (1988)) were maintained in Dulbecco's Modified Eagle's Medium (DMEM) containing 10% fetal bovine serum (FBS), 4.5 mg/ml glucose, 2 mM L-glutamine, 50 U/ml penicillin and 50 μg/ml streptomycin (Life Technologies, Gaithersburg, Md.). Cells were maintained at <80% confluency in 5% CO2 (v/v) and were used in experimental procedures up to culture passage 15. Human primary melanocytes (Clonetics, San Diego, Calif. or Cascade Biologics, Portland, Oreg.) were maintained according to manufacturer's instructions. To establish keratinocyte-melanocyte co-cultures, 6×10^4 melanocytes were plated in each well of a 24 well plate and maintained according to manufacturer's instructions.
Melanocytes were rinsed three times with melanocyte growth media without PMA and keratinocytes (6×10^4) were plated to establish the co-cultures in this media. Co-cultures were treated for three days with test peptides and pigments, and assayed for cell viability and pigment level on the forth day. Cell viability was assayed using alamarBlue™ (Acumed International, West Lake, Ohio) following manufacturer's instructions. No change in viability was observed following three daily treatments with all tested material. All in vitro experiments were performed in triplicates, and were repeated at least three times.
Following three daily treatments, the co-cultures were briefly fixed (10% buffered formalin from Fisher Scientific, 15 minutes), washed three times with Phosphate-buffered saline (PBS, from Life Technologies) and stained with L-3,4-Dihydroxyphenylalanine (DOPA, from Sigma, St. Louis, Mo.) 0.1% in PBS, for 5 hours at 37° C., followed by two PBS washes and formalin (10%, overnight) fixation. DOPA is a substrate for tyrosinase, therefore an increase in staining represents increased tyrosinase activity and pigment production. DOPA-stained monolayers were used for image analysis. All images were obtained and analyzed with Image Pro Plus 3.0 software (Media Cybernetics, Silver Spring, Md.). Parameters measured were surface area of stained material within melanocyte and keratinocytes and the total surface area of the cells in the culture, and the relative pigmented area was calculated. A value of 100% was assigned to untreated controls, and values of treatment groups were normalized to their relevant controls. In all experiments there was no difference between PBS-treated cells and untreated controls. Data are presented with standard deviation (SigmaPlot® 5.0, SPSS Science, Chicago, Ill.).
Forskolin (Sigma, St. Louis, Mo.), a known inducer of pigmentation, served as a positive control and a reference point. Forskolin was administered at 1% (W/V).

[2] = system: Dark skinned Yucatan microswine; test: Induced pigmentation in vivo, F&M-stained skin sections of topically treated swine; parameters: key: −1: Slight lightening; 0: No change; 1: Minimal increase in pigment deposition; 2: Increased pigment deposition; 3: Strong increase in pigment deposition, some increase in caps; 4: Strong increase in pigment deposition, strong increase in caps; settings: topical twice a day, five days/week, eight or nine weeks; peptides 250 or 500 μM, pigments 1% or 5% (W/V), positive controls 1% (W/V); average of all sites of responsive swine
Description: Compositions of the present invention were tested for their ability to induce in vivo pigmentation in skin cells in the following experiment. Dark skinned Yucatan microswine (Charles River, Portland, Me.) were housed in appropriately sized cages in an environmentally controlled room with a 12-hour light-12-hour dark photoperiod and supplied with food and water ad libitum. Animal care was based on the “Guide for the Care and Use of Laboratory Animals”, NIH Publication No. 85-23. Twenty μl of test peptides were applied topically, twice a day, five days/week, for eight or nine weeks, on the dorsum of the swine. Treatments of individual swine were always arranged in a head to tail order on one side, and in a tail to head order on the other side of the animal. Biopsies were taken using standard techniques.
Sections from the skin biopsies were stained with Hematoxylin and Eosin (H&E), or with Fontana-Mason (F&M), using standard procedures (Sheenan D C, Hrapckak B B, eds., Theory and Practice of Histo-technology. p. 223, 277, The C.V. Mosby Co., St. Louis (1980)). F&M staining identifies silver nitrate reducing molecules. In skin, this non-specific stain identifies primarily melanin. At least three sections per biopsy were processed. Each experiment was repeated at least three times.
Swine were treated with either: the known skin darkening agent forskolin (Sigma) or with a Coleus forskoli extract (ATZ Naturals, Englewood Cliffs, N.J.) which contains forskolin, as a positive control at 1% (W/V); pigments at 1% or 5% (W/V); peptides of this invention at 250 μM or 500 μM; and combinations of such peptides at 250 μM or 500 μM with pigments at 1% (W/V). Pigments tested include pigmented natural extracts (i.e., Bearberry extract and Hedychium spicatum extract) and synthetic compounds (i.e., the soluble melanin compound Melasyn-100™). These test compounds were dissolved in ethanol: propylene glycol 70:30 (v/v). […]
F&M-stained histological skin sections were evaluated for the change in pigment deposition within the treated site. […]

[Cl][Cu][Cl] [CuCl2, copper chloride]
Mean area ([1]; pigment alone 0.001% (W/V)): 0.064 | % increase ([1]; pigment alone 0.001% (W/V)): 220%

C=C[C@@]1(C)CC(=O)[C@]2(O)[C@@]3(C)[C@@H](O)CCC(C)(C)[C@@H]3[C@H](O)[C@H](OC(C)=O)[C@@]2(C)O1 [Forskolin, reference compound]
Score (change in pigment deposition) [2]: 1 | Mean area ([1]; positive control 1% (W/V)): 0.067 | % increase ([1]; positive control 1% (W/V)): 231.0%

H2-Leu-Ile-Gly-Arg-NH2 (H-LIGR-NH2) [Peptide 1]
Score (change in pigment deposition) [2]: 1-2 | Mean area ([1]; peptide alone 50 μM): 0.080 | % increase ([1]; peptide alone 50 μM): 279%

H2-Ser-Leu-Ile-Gly-Arg-Leu-NH2 (H-SLIGRL-NH2) [Peptide 3]
Score (change in pigment deposition) [2]: 2-3

Source: patent US20020197281A1, “Composition cantaining a peptide and a pigment and the use thereof in darkening the skin” (priority 2001, published 2002)
